Test results published in patent publication US5928933A, “Process for the enzymatic resolution of N-(alkoxycarbonyl)-4-ketoproline alkyl esters or N-(alkoxycarbonyl)-4-hydroxyproline alkyl esters using Candida antarctica lipase B” (priority 1998, dated 1999).
Where two headings read alike, the source gives them in different places. Blank lines part the entries; values can stand above or below the molecule they belong to.

Tests used:
[1] = target: T1, Candida antartica lipase fraction B (CALB) (Moesziomyces antarcticus, UniProt P41365); assay type: biochemical
T1 construct: purchased Boehringer Mannheim CHIRAZYME L-2
T1 sequence (P41365 26-342): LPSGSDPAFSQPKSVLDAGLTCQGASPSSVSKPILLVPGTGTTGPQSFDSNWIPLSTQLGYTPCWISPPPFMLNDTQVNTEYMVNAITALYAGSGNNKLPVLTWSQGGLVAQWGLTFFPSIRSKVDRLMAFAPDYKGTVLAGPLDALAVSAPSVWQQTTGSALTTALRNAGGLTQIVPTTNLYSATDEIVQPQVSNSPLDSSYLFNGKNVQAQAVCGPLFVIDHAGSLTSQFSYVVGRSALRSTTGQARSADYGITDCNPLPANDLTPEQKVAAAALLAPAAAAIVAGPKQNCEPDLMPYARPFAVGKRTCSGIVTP
Method: Using CALB for the diastereomeric resolution of five of the six possible pairs of diastereomers of N-(methoxycarbonyl)-4-hydroxyproline methyl esters produced the diastereomeric excesses at the indicated conversions listed in Table 1 below.
(§1) A 3.0 mL aqueous solution containing 50 mM N-(methoxycarbonyl)-trans-4-hydroxy-L-proline methyl ester and 50 mM N-(methoxycarbonyl)-cis-4-hydroxy-D-proline methyl ester in 0.100M potassium phosphate (pH 7.0) was mixed with 2.1 mg/mL of Candida antartica lipase fraction B at 25° C. The reaction was analyzed by removal of a 0.200 mL sample and mixing with an equivalent volume of 0.100M propionic acid (HPLC internal standard) in water. The resulting solution was filtered through a 10K molecular weight cut-off filter to remove the enzyme and the filtrate analyzed by high pressure liquid chromatography on a HPX-87H column (Bio-Rad, 30 cm×7.8 mm) to determine the percent conversion of each isomer of the diastereomeric mixture, and the diastereomeric excess of the N-(methoxycarbonyl)-cis-4-hydroxy-D-proline methyl ester.
A 2.0 mL aqueous solution containing 50 mM N-(methoxycarbonyl)-trans-4-hydroxy-L-proline methyl ester and 50 mM N-(methoxycarbonyl)-cis-4-hydroxy-D-proline methyl ester in 0.100M potassium phosphate (pH 7.0) was mixed with 403 mg of immobilized Candida antartica lipase fraction B (Boehringer Mannheim, CHIRAZYME® L-2, c.-f., C2, lyo.) at 31° C. The reaction was analyzed by mixing the entire reaction mixture with an equivalent volume of 0.100M propionic acid (HPLC internal standard) in water […]. An aliquot of the resulting solution was filtered through a 10K molecular weight cut-off filter to remove the enzyme and the filtrate analyzed by high pressure liquid chromatography on a HPX-87H column (Bio-Rad, 30 cm×7.8 mm) to determine the percent conversion of each isomer of the distereomeric mixture, and the diastereomeric excess of the N-(methoxycarbonyl)-cis-4-hydroxy-D-proline methyl ester. After 7 h, a 94% diastereomeric excess of N-(methoxycarbonyl)-cis-4-hydroxy-D-proline methyl ester was obtained at 49% conversion of the diastereomeric mixture (3.2% N-(methoxycarbonyl)-trans-4-hydroxy-L-proline methyl ester remained).
as §1, with “A 5.0” for “A 3.0”, “containing 51” for “containing 50”, “and 51” for “and 50”, “with 50” for “with 2.1”, “the N-(methoxycarbonyl)-trans-4-hydroxy-D-prolinemethyl” for “the N-(methoxycarbonyl)-cis-4-hydroxy-D-proline methyl”
A 5.0 mL aqueous solution containing 50 mM N-(methoxycarbonyl)-cis-4-hydroxy-D-proline methyl ester and 50 mM N-(methoxycarbonyl)-cis-4-hydroxy-L-proline methyl ester in 0.100M potassium phosphate (pH 7.0) and 50 mg/mL of Candida antartica lipase fraction B was mixed at 25° C. The reaction was analyzed by removal of two 0.200 mL aliquots at pre-determined times. One 0.200 mL aliquot was mixed with an equivalent volume of 0.100M propionic acid (HPLC internal standard) in water, and the resulting solution filtered through a 10K molecular weight cut-off filter to remove the enzyme. The filtrate was then analyzed by high pressure liquid chromatography on a HPX-87H column (Bio-Rad, 30 cm×7.8 mm) to determine the total percent conversion of both the D- and L-proline isomers of the N-(methoxycarbonyl)-cis-4-hydroxyproline methyl esters. […]

[2] = target: T1, Candida antartica lipase fraction B (CALB); test: Relative rates of hydrolysis of N-(alkoxycarbonyl)-trans-4-hydroxy-L-proline methyl esters by CALB; assay type: biochemical; conditions: 50 mM substrate, 3.0 mg/mL CALB, 25° C.
Method: A 2.0 mL aqueous solution containing 50 mM N-(methoxycarbonyl)-trans-4-hydroxy-L-proline methyl ester, or 50 mM N-(ethoxycarbonyl)-trans-4-hydroxy-L-proline methyl ester, or 50 mM N-(tert-butoxycarbonyl)-trans-4-hydroxy-L-proline methyl ester in 0.100M potassium phosphate (pH 7.0) and 3.0 mg/mL of Candida antartica lipase fraction B was mixed at 25° C. The reactions were analyzed by removal of 0.200 mL aliquots at pre-determined times and mixing the sample with an equivalent volume of 0.100M propionic acid (HPLC internal standard) in water, and filtering the resulting solution through a 10K molecular weight cut-off filter to remove the enzyme. The filtrate was then analyzed by high pressure liquid chromatography on a HPX-87H column (Bio-Rad, 30 cm×7.8 mm) to determine the percent conversion of the N-(alkoxycarbonyl)-trans-4-hydroxy-L-proline methyl ester. Complete hydrolysis of the methyl ester of the N-methoxy-, N-ethoxy-, and N-tert-butoxycarbonyl derivatives occurred in 5 h, 2 h, and 6 h, respectively, and the initial reaction rates were 5.7, 18.7, and 3.3 micromoles/h/mg enzyme catalyst, respectively.

[3] = target: T1, Candida antartica lipase fraction B (CALB); assay type: biochemical; conditions: 0.20m succinate, 5 h, pH 6
Method: (§2) Reacting a 0.10M solution of the 1:1 mixture of KDP(MEMC) and KLP(MEMC) in 0.20M succinate (pH 6.0) at 25° C. for 5 h with approximately 1-3 mg/mL of Candida antartica lipase fraction B (CALB) produced a 95% ee (substrate) of KDP(MEMC) at 51% conversion. […] The calculated enantioselectivity (E) at 51% conversion was E=81.
(§3) The enzymatic hydrolysis reaction of KDP(MEMC) and KLP(MEMC) using CALB (described above) was repeated at pH 5.0 in 0.20M acetate buffer (Example 2), and a 100% ee (substrate) of the D-isomer was obtained at 51% conversion (E=>1000); the reaction rate was approximately 50% of the rate at pH 6.0, and the slight loss of the D-isomer at pH 5.0 was again observed in the absence of added enzyme (95% recovery at pH 5.0 after 24 h with no enzyme).
The procedure described in Example I was repeated using Candida antartica lipase fraction B (CALB), except that the reaction was run in 0.200M sodium cetate (pH 5.0) instead of the 0.20M sodium succinate buffer (pH 6.0) used for Candida antartica lipase fraction B in Example 1. Aqueous solutions (5.0 mL) containing varying concentrations of a racemic mixture of N-(methoxycarbonyl)-4-keto-D,L-proline methyl ester and CALB were mixed at 15° C., 25° C., 35° C. or 45° C.
An aqueous solution (5.0 mL) containing 25 mM N-(methoxycarbonyl)-4-keto-Dproline methyl ester and 25 mM N-(methoxycarbonyl)-4-keto-L-proline methyl ester in 0.200M sodium acetate (pH 5.0) was mixed with 2.5 g of immobilized Candida antartica lipase fraction B (Boehringer Mannheim, CHIRAZYME® L-2, c.-f., C2, lyo.) at 25° C. […] The dichloromethane extract was then analyzed by chiral gas chromatography on a Chiraldex G-TA column (Advanced Separation Technologies, Inc., 50 m×0.32 mm ID) to determine the amounts of the unreacted D- and L-isomers. After 31 h, an 85% enantiomeric excess of N-(methoxycarbonyl)-4-keto-D-proline methyl ester was obtained at 41% conversion of the racemic mixture.
A 200 mL aqueous solution containing 0.200M sodium acetate (pH 5.0), 1.3325 g of Candida antartica lipase fraction B, and 4.02 g of racemic N-(methoxycarbonyl)-4-keto-D,L-proline methyl ester (100 mM) was stirred at 25° C. After 24 h, an 96% enantiomeric excess of N-(methoxycarbonyl)-4-keto-D-proline methyl ester was obtained at 50% conversion of the racemic mixture. The reaction mixture was filtered using a 10,000 MWCO membrane filter (Amicon) to remove the enzyme catalyst, and the filtrate extracted with three 200 mL portions of dichloromethane. The combined organic extracts were dried over magnesium sulfate, filtered, and the dichloromethane removed from the filtrate by rotary evaporation at reduced pressure. Residual dichloromethane was removed from the resulting colorless oil at high vacuum (50 millitorr) to produce N-(methoxycarbonyl)-4-keto-D-proline methyl ester as a white solid (1.99 g, 99% isolated yield, 99% purity (by GC), 97% ee).
An aqueous solution (2.0 mL) containing 50 mM N-(ethoxycarbonyl)-4-keto-D-proline ethyl ester and 50 mM N-(ethoxycarbonyl)-4-keto-L-proline ethyl ester in 0.200M sodium acetate (pH 5.0) and 30 mg/mL of Candida antartica lipase fraction B was mixed at 25° C. […] The dichloromethane extract was then analyzed by chiral gas chromatography on a Chiraldex G-TA column (Advanced Separation Technologies, Inc., 50 m×0.32 mm ID) to determine the amounts of the unreacted D- and L-isomers. After 24 h, a 100% enantiomeric excess of N-(ethoxycarbonyl)-4-keto-D-proline ethyl ester was obtained at 51% conversion of the racemic mixture.
An aqueous solution (1.0 mL) containing 19 mM of N-(2-phenylacetyl)-4-keto-D-proline methyl ester and 19 mM of N-(2-phenylacetyl)-4-keto-L-proline methyl ester in 0.200M sodium acetate (pH 5.0) and 25 mg/mL of Candida antartica lipase fraction B was mixed at 25° C. […]

[4] = Stability of aqueous solutions of the esters in the absence of enzyme; assay type: physicochemical; conditions: for isomer lost without added enzyme: pH 6.0, identical reaction conditions (0.20M succinate, 25° C.), 5 h
Method: as §2, §3
The pH of the reaction mixture is also chosen to optimize the reaction rate, the stability of the enzyme catalyst activity, and the stability of the ketoproline or hydroxyproline derivatives. The stability of aqueous solutions of N-(alkoxy-carbonyl)-4-ketoproline alkyl esters or N-(alkoxycarbonyl)-4-hydroxyproline alkyl esters were dependent on pH. […] For resolution of mixtures of N-(alkoxycarbonyl)-4-keto-D,L-proline alkyl esters, a pH range of from 3.0 to 6.0 is preferred, and a pH range of from 4.0 to 5.0 is most preferred. For resolution of diastereomeric mixtures of N-(alkoxycarbonyl)-4-hydroxy-proline alkyl esters, a pH range of from 3.0 to 7.5 is preferred, and a pH range of from 6.0 to 7.0 is most preferred.

[5] = candida antartica lipase b, 24 h, 51000 µM, pH 7

isomer remaining ([1]; candida antartica lipase b, 7 h, 50000 µM, pH 7): 3.2% | time to complete hydrolysis of the methyl ester ([2]; 0.100M potassium phosphate pH 7.0): 5 h | initial reaction rate ([2]; pH 7.0): 5.7 micromoles/h/mg enzyme catalyst
Compound: COC(=O)[C@@H]1C[C@@H](O)CN1C(=O)OC [THLP(MEMC), N-(methoxycarbonyl)-trans-4-hydroxy-L-proline methyl ester]
isomer remaining ([1]; 50 mM each, 2.1 mg/mL CALB, pH 7.0, 25° C., 24 h): no N-(methoxycarbonyl)-trans-4-hydroxy-L-proline methyl ester remained | isomer remaining ([1]; 50 mM each, 4.0 mg/mL CALB, pH 7.0, 25° C., 24 h): no N-(methoxycarbonyl)-trans-4-hydroxy-L-proline methyl ester remained

share of isomer remaining at 51% conversion [3]: 97.5% | recovery with no enzyme ([4]; pH 5.0, after 24 h): 95% | isomer lost without added enzyme [4]: approximately 3%
Compound: COC(=O)[C@H]1CC(=O)CN1C(=O)OC [KDP(MEMC), N-(methoxycarbonyl)-4-keto-D-proline methyl ester]

isomer remaining [1, 5]: 3.0%
Compound: COC(=O)[C@@H]1C[C@H](O)CN1C(=O)OC [CHLP(MEMC), N-(methoxycarbonyl)-cis-4-hydroxy-L-proline methyl ester]
isomer remaining ([1]; 50 mM each, 50 mg/mL CALB, pH 7.0, 25° C., 47 h): no N-(methoxycarbonyl)-cis-4-hydroxy-L-proline methyl ester remained

isomer remaining [1, 5]: 82.7%
Compound: COC(=O)[C@H]1C[C@H](O)CN1C(=O)OC [THDP(MEMC), N-(methoxycarbonyl)-trans-4-hydroxy-D-proline methyl ester]

share of isomer remaining at 51% conversion [3]: 2.5% | isomer lost without added enzyme [4]: approximately 3%
Compound: COC(=O)[C@@H]1CC(=O)CN1C(=O)OC [KLP(MEMC), N-(methoxycarbonyl)-4-keto-L-proline methyl ester]

methyl ester hydrolysis by CALB ([1]; under reaction conditions): no hydrolysis
Compound: COC(=O)[C@H]1C[C@@H](O)CN1C(=O)OC [CHDP(MEMC), N-(methoxycarbonyl)-cis-4-hydroxy-D-proline methyl ester]
